Reference: patent publication US6426340B1, “Prevention and treatment of colorectal cancer by 6-fluoroursodeoxycholic acid (6-FUDCA)” (Novartis AG, priority 1996, dated 2002)
Marks after values point to notes of the source that are not given here.

Key:
[1] = Analysis of fecal bile acid levels in the diet-supplemented rats; format: in vivo
Procedure: (§1) Protocol of Study. All rats were fed their assigned diets for 2 weeks, following which 10 rats in each group (except control group) were given s.c. injections of AOM (Sigma Chemical Co.; 15 mg/kg body weight) once a week for 2 weeks, while 5 rats received AOM vehicle. Control rats received AOM vehicle only. A week later (at week 3) rats received a second dose of carcinogen (AOM 15 mg/kg) while control rats received AOM vehicle. Each group was then maintained on their respective experimental diet for an additional 3 weeks. At this time, day 42, the rats were sacrificed; their colons were removed, opened, washed with normal saline, and examined macroscopically and microscopically for the presence of tumors. Aberrant crypts were quantified by direct microscopic counting of methylene blue stained whole colon. Stool specimens were removed from the colon at the time of termination, snap frozen, and maintained frozen for subsequent analysis of fecal bile acids.
Therefore, 6-FUDCA enriches rat bile with therapeutic bile acid to a greater extent then can UDCA. Furthermore, 6-FUDCA reduces the formation of bile acids which are potentially toxic to the colonic mucosa.

[2] = tested on: aberrant crypt foci (ACF) in AOM rat model; test: Development of ACF in AOM rat model, 12 weeks study; format: in vivo, Male albino Fischer-344 rats; settings: for Multiplicity of ACF / Nr of ACF / Total AC count: AOM rat model, 12 weeks study, diet supplementation, means ± Std. Dev., N=12
Procedure: Animals. Male albino Fischer-344 rats, initially weighing approximately 90-130 g, were used in these experiments. All diets were obtained from Dyets, Inc. (Bethlehem, Pa.). On arrival, the animals were quarantined for 1 week and then divided into the following experimental groups: Protocol of Study. […] Control rats received AOM vehicle only. A week later (at week 3) rats received a second dose of carcinogen (AOM 15 mg/kg) while control rats received AOM vehicle. […] Aberrant crypts were quantified by direct microscopic counting of methylene blue stained whole colon. Stool specimens were removed from the colon at the time of termination, snap frozen, and maintained frozen for subsequent analysis of fecal bile acids. Statistical Methods. The data were analyzed using the Aspin-Welch t-test, two sided. A value of P<0.05 was considered significant. The protocol for this Example was the same as that for Example I except that 12 rats were included in each AOM-treated group and 6 rats in each control group. Carcinogen was administered on Days 14 and 21. The rats were then continued on the diets containing the experimental drugs for an additional 10 weeks. The following tables set forth the data obtained in the study.

[3] = tested on: aberrant crypt foci (ACF) in AOM rat model; test: Development of ACF in AOM rat model, 5 weeks study; format: in vivo, Male albino Fischer-344 rats; settings: diet with UDCA 0.4%, 6-FUDCA 0.4% or piroxicam 75 ppm, means ± Std. Dev., N=10
Excerpt: as §1, with “Animals. Male albino Fischer-344 rats, initially weighing approximately 90-130 g, were used in these experiments. All diets were obtained from Dyets, Inc. (Bethlehem, Pa.). On arrival, the animals were quarantined for 1 week and then divided into the following experimental groups: Group 1—Standard AIN-76 diet only with no added agents (control group). Group 2—AIN-76 diet plus UDCA 0.4%. Group 3—AIN-76 diet plus 6-FUDCA 0.4%. Group 4—AIN-76 diet plus piroxicam 75 ppm (included for a known positive drug control). Protocol” for “Protocol”, “acids. Statistical Methods. The data were analyzed using the Aspin-Welch t-test, two sided. A value of P<0.05 was considered significant.” for “acids.”

[4] = Physicochemical properties of 6-FUDCA compared with UDCA
Excerpt: Additionally, the retention time on C-18 reverse phase HPLC was different for the two fluorinated diastereoisomers. […] The invention relates to the single isomers or diastereoisomers of 6-FUDCA and mixtures thereof.

[5] = tested on: intestinal bacterial flora; settings: 7-dehydroxylation by intestinal bacterial flora; cited from earlier work

| SMILES | DC and hyoDC in the feces ([1]; 6-FUDCA rats compared with UDCA rats) | Metabolism by bacteria in the gut ([1]; rat, fecal bile acid analysis) | Multiplicity of ACF [2] | Nr of ACF [2] | Total AC count [2] | Aberrant crypts per aberrant crypt focus (FIG. 3) ([2]; rats treated with 6-FUDCA, AOM model) | Multiplicity of ACF [3] | Nr of ACF [3] | Total AC count [3] | Hydrophilicity (C-18 reverse phase HPLC) ([4]; 6-α-epimer, with respect to UDCA) | Critical micellar concentration ([4]; compared with UDCA) | Critical micellar pH ([4]; compared with UDCA) | Water solubility ([4]; compared with UDCA) | Resistance to bacterial dehydroxylation [5] |
| --- | --- | --- | --- | --- | --- | --- | --- | --- | --- | --- | --- | --- | --- | --- |
| C[C@H](CCC(=O)O)[C@H]1CC[C@H]2[C@@H]3[C@@H](O)[C@H](F)[C@@H]4C[C@H](O)CC[C@]4(C)[C@H]3CC[C@]12C [6-FUDCA, 3α, 7βdihydroxy-6α-fluoro-5β-cholanoic acid] | less DC and hyoDC are seen in the feces of 6-FUDCA rats than in UDCA rats | not metabolized by bacteria in the gut | 2.7 ± 0.3^b) | 130.1 ± 35.5^b) | 350.6 ± 87.3^b) | aberrant crypt foci with fewer aberrant crypts | 1.9 ± 0.1^b) | 84.4 ± 16.3 | 160.7 ± 34.6^b) | increased hydrophilicity with respect to UDCA | slightly lower | lower than that of UDCA | higher than that of UDCA | extremely resistant to bacterial dehydroxylation |
| CN1C(C(=O)Nc2ccccn2)=C(O)c2ccccc2S1(=O)=O [PIROXICAM, piroxicam] |  |  | 3.4 ± 0.3 | 156.3 ± 34.0^b) | 625.3 ± 136.1^b) |  | 3.0 ± 0.2 | 62.9 ± 9.4^b) | 190.1 ± 30.7^b) |  |  |  |  |  |
| C[C@H](CCC(=O)O)[C@H]1CC[C@H]2[C@@H]3[C@@H](O)C[C@@H]4C[C@H](O)CC[C@]4(C)[C@H]3CC[C@]12C [UDCA, ursodeoxycholic acid] |  |  | 2.8 ± 0.2^b) | 161.2 ± 37.8^b) | 445.5 ± 87.4^b) |  | 2.0 ± 0.2^b) | 108.1 ± 34.7 | 218.3 ± 73.3^b) |  |  |  |  |  |
